Marks after values point to notes of the source that are not given here.
Assay: Solubility of ticagrelor in HPβCD (appearance on shaking platform)
Format: physicochemical
Method: In a first example two different types of cyclodextrin were used and compared for the solubilization of ticagrelor. An unbuffered stock solution of HPβCD or SBECD was made in water at the target concentrations of 20 w/w %, 25 w/w %, 30 w/w %, 35 w/w % and 40 w/w %. Ticagrelor was added slowly under vortex. Ticagrelor was used at concentrations of 5, 10 or 14 mg/ml in milli Q water. The ticagrelor-cyclodextrin solutions were left on a shaking platform. No sonification or heat was applied.

[1] = HPβCD 20% w/w, ticagrelor 5 mg/ml
[2] = HPβCD 20% w/w, ticagrelor 10 mg/ml
[3] = HPβCD 20% w/w, ticagrelor 14 mg/ml
[4] = HPβCD 25% w/w, ticagrelor 5 mg/ml
[5] = HPβCD 25% w/w, ticagrelor 10 mg/ml
[6] = HPβCD 25% w/w, ticagrelor 14 mg/ml
[7] = HPβCD 30% w/w, ticagrelor 5 mg/ml
[8] = HPβCD 30% w/w, ticagrelor 10 mg/ml
[9] = HPβCD 30% w/w, ticagrelor 14 mg/ml
[10] = HPβCD 35% w/w, ticagrelor 5 mg/ml
[11] = HPβCD 35% w/w, ticagrelor 10 mg/ml
[12] = HPβCD 35% w/w, ticagrelor 14 mg/ml
[13] = HPβCD 40% w/w, ticagrelor 5 mg/ml
[14] = HPβCD 40% w/w, ticagrelor 10 mg/ml

SMILES: CCCSc1nc(N[C@@H]2C[C@H]2c2ccc(F)c(F)c2)c2nnn([C@@H]3C[C@H](OCCO)[C@@H](O)[C@H]3O)c2n1 [Ticagrelor, (1S,2S,3R,5S)-3-{7-[(1R,2S)-2-(3,4-difluorophenyl)cyclopropylamino]5-(propylthio)-3H-(1,2,3)triazolo (4,5-D)pyrimidin-3-yl}-5-(2 hydroxyethoxy)cyclopentane-1,2-diol]
- Appearance (5 mg/ml ticagrelor with 25, 30, 35 and 40 w/w % HPβCD): Clear
- Appearance on standing (5 mg/ml, HPβCD 40%, 35% or 30% w/w in milliQ water, at least three days at room temperature and several days at 4° C.): remained clear
- Appearance After 5 min of shaking [1]: − (translucent solution with precipitation)
- Appearance After 30 min of shaking [1]: +/−
- Appearance After 60 min of shaking [1]: +/−
- Appearance After 3 h of shaking [1]: +/−
- Appearance After overnight shaking [1]: − (translucent solution with precipitation)
- Appearance After 5 min of shaking [2]: − (translucent solution with precipitation)
- Appearance After 30 min of shaking [2]: − (translucent solution with precipitation)
- Appearance After 60 min of shaking [2]: − (translucent solution with precipitation)
- Appearance After 3 h of shaking [2]: − (translucent solution with precipitation)
- Appearance After overnight shaking [2]: − (translucent solution with precipitation)
- Appearance After 5 min of shaking [3]: − (translucent solution with precipitation)
- Appearance After 30 min of shaking [3]: − (translucent solution with precipitation)
- Appearance After 60 min of shaking [3]: − (translucent solution with precipitation)
- Appearance After 3 h of shaking [3]: − (translucent solution with precipitation)
- Appearance After overnight shaking [3]: − (translucent solution with precipitation)
- Appearance After 5 min of shaking [4]: − (translucent solution with precipitation)
- Appearance After 30 min of shaking [4]: +/−
- Appearance After 60 min of shaking [4]: +/−
- Appearance After 3 h of shaking [4]: +/−
- Appearance After overnight shaking (HPβCD 25% w/w, ticagrelor 5 mg/ml, after one hour of sonication): +* (clear, appeared completely dissolved)
- Appearance After 5 min of shaking [5]: − (translucent solution with precipitation)
- Appearance After 30 min of shaking [5]: − (translucent solution with precipitation)
- Appearance After 60 min of shaking [5]: − (translucent solution with precipitation)
- Appearance After 3 h of shaking [5]: − (translucent solution with precipitation)
- Appearance After overnight shaking [5]: − (translucent solution with precipitation)
- Appearance After 5 min of shaking [6]: − (translucent solution with precipitation)
- Appearance After 30 min of shaking [6]: − (translucent solution with precipitation)
- Appearance After 60 min of shaking [6]: − (translucent solution with precipitation)
- Appearance After 3 h of shaking [6]: − (translucent solution with precipitation)
- Appearance After overnight shaking [6]: − (translucent solution with precipitation)
- Appearance After 5 min of shaking [7]: − (translucent solution with precipitation)
- Appearance After 30 min of shaking [7]: +/−
- Appearance After 60 min of shaking [7]: +/−
- Appearance After 3 h of shaking [7]: +/−
- Appearance After overnight shaking [7]: + (clear, appeared completely dissolved)
- Appearance After 5 min of shaking [8]: − (translucent solution with precipitation)
- Appearance After 30 min of shaking [8]: − (translucent solution with precipitation)
- Appearance After 60 min of shaking [8]: − (translucent solution with precipitation)
- Appearance After 3 h of shaking [8]: − (translucent solution with precipitation)
- Appearance After overnight shaking [8]: − (translucent solution with precipitation)
- Appearance After 5 min of shaking [9]: − (translucent solution with precipitation)
- Appearance After 30 min of shaking [9]: − (translucent solution with precipitation)
- Appearance After 60 min of shaking [9]: − (translucent solution with precipitation)
- Appearance After 3 h of shaking [9]: − (translucent solution with precipitation)
- Appearance After overnight shaking [9]: − (translucent solution with precipitation)
- Appearance After 5 min of shaking [10]: +/−
- Appearance After 30 min of shaking [10]: +/−
- Appearance After 60 min of shaking [10]: +/−
- Appearance After 3 h of shaking [10]: +/−
- Appearance After overnight shaking [10]: + (clear, appeared completely dissolved)
- Appearance After 5 min of shaking [11]: − (translucent solution with precipitation)
- Appearance After 30 min of shaking [11]: +/−
- Appearance After 60 min of shaking [11]: +/−
- Appearance After 3 h of shaking [11]: +/−
- Appearance After overnight shaking [11]: + (clear, appeared completely dissolved)
- Appearance After 5 min of shaking [12]: − (translucent solution with precipitation)
- Appearance After 30 min of shaking [12]: +/−
- Appearance After 60 min of shaking [12]: +/−
- Appearance After 3 h of shaking [12]: +/−
- Appearance After overnight shaking [12]: +/−
- Appearance After 5 min of shaking [13]: + (clear, appeared completely dissolved)
- Appearance After 30 min of shaking [13]: + (clear, appeared completely dissolved)
- Appearance After 60 min of shaking [13]: + (clear, appeared completely dissolved)
- Appearance After 3 h of shaking [13]: + (clear, appeared completely dissolved)
- Appearance After overnight shaking [13]: + (clear, appeared completely dissolved)
- Appearance After 5 min of shaking [14]: − (translucent solution with precipitation)
- Appearance After 30 min of shaking [14]: +/−
- Appearance After 60 min of shaking [14]: +/−
- Appearance After 3 h of shaking [14]: +/−
